Measured values from patent US20150157021A1, “NEW ANTIFUNGAL COMPOSITIONS” (DSM IP ASSETS B.V., priority 2012, published 2015).

Tested on: Botrytis cinerea
Test: Treatment of wounded strawberries inoculated with Botrytis cinerea (Examples 5, 6)
Format: in vivo
Conditions: for Observed antifungal activity O (%): strawberries, 20° C.
Procedure: Twelve fresh, organic strawberries were used per treatment. Each strawberry was wounded with a 0.5 mm long cut and each wound was inoculated with 10 μl of a Botrytis cinerea suspension containing 1×10^5 of spores/ml. After a 3-hour incubation period at 20° C., each strawberry was dipped individually for 1 minute in a freshly prepared aqueous antifungal composition comprising either 500 ppm natamycin (DSM Food Specialties, Delft, The Netherlands), 500 ppm fenhexamid or both. Each antifungal composition also comprised 3.2% (w/w) beeswax, 0.8% (w/w) glycerol, 0.7% (w/w) polyoxyethylene sorbitan monostearate (Tween 60), 0.1% (w/w) polyoxyethylene sorbitan monooleate (Tween 80), 0.05% (w/w) methylhydroxyethyl-cellulose (MHEC), 0.03% (w/w) anti-foaming agent, 0.02% (w/w) xanthan gum, 0.02% (w/w) citric acid, 0.01% (w/w) lactic acid and 0.01% potassium sorbate. A composition without natamycin or fenhexamid was used as control. […] The treated strawberries were incubated in a closed box in the dark at 20° C. for 11 days.
The expected antifungal activity (E in %) of the combined antifungal composition comprising both active ingredients was calculated according to the Colby equation (Colby, 1967): […]
wherein X and Y are the observed antifungal activities (in %) of the individual active ingredients X and Y, respectively.
The experiment was conducted as described in Example 5, except for the fact that each wounded and inoculated strawberry was dipped individually for 1 minute in a freshly prepared aqueous antifungal composition comprising either 250 ppm natamycin (DSM Food Specialties, Delft, The Netherlands), 250 ppm fenhexamid or both. The treated strawberries were incubated in a closed box in the dark at 20° C. for 10 days. During incubation, the treated strawberries were assessed on mould growth according to the two methods described in Example 5.

`C[C@@H]1C/C=C/C=C/C=C/C=C/[C@H](O[C@@H]2O[C@H](C)[C@@H](O)[C@H](N)[C@@H]2O)C[C@@H]2O[C@](O)(C[C@@H](O)C[C@H]3O[C@@H]3/C=C/C(=O)O1)C[C@H](O)[C@H]2C(=O)O` [Natamycin, natamycin] was tested. Which “Number of moulded strawberries/total number of 12 strawberries” value (Day 5, 20° C., 250 ppm natamycin, 250 ppm fenhexamid or both) did it give?
The value was 9/12.

What about the “Number of moulded strawberries/total number of 12 strawberries” value (Day 5, 20° C., 250 ppm natamycin, 250 ppm fenhexamid or both, listed as natamycin) of the same compound?
Its value is 9.

What about the “Number of moulded strawberries/total number of 12 strawberries” value (Day 6-7, 20° C., 250 ppm natamycin, 250 ppm fenhexamid or both) of the same compound?
Its value is 11/12.

What about the “Number of moulded strawberries/total number of 12 strawberries” value (Day 6-7, 20° C., 250 ppm natamycin, 250 ppm fenhexamid or both, listed as natamycin) of the same compound?
Its value is 11.

And the “Number of moulded strawberries/total number of 12 strawberries” value (Day 7-8, 20° C., 500 ppm natamycin, 500 ppm fenhexamid or both)?
The value was 12/12.

What about the “Number of moulded strawberries/total number of 12 strawberries” value (Day 8, 20° C., 250 ppm natamycin, 250 ppm fenhexamid or both) of the same compound?
The value was 11/12.

What about the “Number of moulded strawberries/total number of 12 strawberries” value (Day 8, 20° C., 250 ppm natamycin, 250 ppm fenhexamid or both, listed as natamycin) of the same compound?
Its value is 11.

What about the “Number of moulded strawberries/total number of 12 strawberries” value (Day 9, 20° C., 500 ppm natamycin, 500 ppm fenhexamid or both) of the same compound?
Its value is 12/12.

And the “Number of moulded strawberries of 12” value (after 6 through 9 days of incubation, 500 ppm natamycin alone or 500 ppm fenhexamid alone)?
The value was 12.

And the “Observed antifungal activity O (%)” value (8 days, 250 ppm natamycin, 250 ppm fenhexamid or both)?
Its value is 18%.

What about the “Observed antifungal activity O (%)” value (9 days, 250 ppm natamycin, 250 ppm fenhexamid or both) of the same compound?
The value was 13%.

What about the “Observed antifungal activity O (%)” value (10 days, 250 ppm natamycin, 250 ppm fenhexamid or both) of the same compound?
Its value is 4.8%.

And the “Observed antifungal activity O (%)” value (10 days, 500 ppm natamycin, 500 ppm fenhexamid or both)?
The value was 2.4%.

What about the “Observed antifungal activity O (%)” value (11 days, 500 ppm natamycin, 500 ppm fenhexamid or both) of the same compound?
The value was 2.4%.
